Results reported in PubChem BioAssay (NCI).
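Abbreviation: GI50, concentration required for 50% inhibition of growth. At the TGI there is no net growth.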

Key:
Assay in all cases: growth of human tumour cells (NCI), 384-well format
SNB-75 CNS = test system: SNB-75 CNS
T-47D breast = test system: T-47D breast
NCI-H23 lung = test system: NCI-H23 lung
M14 melanoma = test system: M14 melanoma
NCI-H522 lung = test system: NCI-H522 lung
NCI-H226 lung = test system: NCI-H226 lung
NCI-H460 NSCLC = test system: NCI-H460 NSCLC
PC-3 prostate = test system: PC-3 prostate
OVCAR-3 ovarian = test system: OVCAR-3 ovarian
SNB-19 CNS = test system: SNB-19 CNS
SN12C renal = test system: SN12C renal
HS 578T breast = test system: HS 578T breast
SF-539 CNS = test system: SF-539 CNS
MDA-MB-435 melanoma = test system: MDA-MB-435 melanoma
EKVX NSCLC = test system: EKVX NSCLC
A549 NSCLC = test system: A549 NSCLC
UACC-62 melanoma = test system: UACC-62 melanoma
OVCAR-4 ovarian = test system: OVCAR-4 ovarian
HCT-15 colon = test system: HCT-15 colon
A498 renal = test system: A498 renal
COLO 205 colon = test system: COLO 205 colon
786-0 renal = test system: 786-0 renal
HCC-2998 colon = test system: HCC-2998 colon
HOP-62 NSCLC = test system: HOP-62 NSCLC
HL-60(TB) leukemia = test system: HL-60(TB) leukemia
OVCAR-8 ovarian = test system: OVCAR-8 ovarian
TK-10 renal = test system: TK-10 renal
MOLT-4 leukemia = test system: MOLT-4 leukemia
SK-MEL-5 melanoma = test system: SK-MEL-5 melanoma
MDA-MB-468 breast = test system: MDA-MB-468 breast
UO-31 renal = test system: UO-31 renal
RXF 393 renal = test system: RXF 393 renal
SK-OV-3 ovarian = test system: SK-OV-3 ovarian
SW-620 colon = test system: SW-620 colon
CAKI-1 renal = test system: CAKI-1 renal
DU-145 prostate = test system: DU-145 prostate
CCRF-CEM leukemia = test system: CCRF-CEM leukemia
SK-MEL-28 melanoma = test system: SK-MEL-28 melanoma
SF-295 CNS = test system: SF-295 CNS
UACC-257 melanoma = test system: UACC-257 melanoma
RPMI-8226 leukemia = test system: RPMI-8226 leukemia
IGROV1 ovarian = test system: IGROV1 ovarian
NCI-H322M lung = test system: NCI-H322M lung
MDA-MB-231 breast = test system: MDA-MB-231 breast
ACHN renal = test system: ACHN renal
HCT-116 colon = test system: HCT-116 colon
MALME-3M melanoma = test system: MALME-3M melanoma
MCF7 breast = test system: MCF7 breast
BT-549 breast = test system: BT-549 breast
OVCAR-5 ovarian = test system: OVCAR-5 ovarian
HOP-92 NSCLC = test system: HOP-92 NSCLC
HT29 colon = test system: HT29 colon
LOX IMVI melanoma = test system: LOX IMVI melanoma
NCI/ADR-RES ovarian = test system: NCI/ADR-RES ovarian
U251 glioblastoma = test system: U251 glioblastoma
KM12 colon = test system: KM12 colon
K-562 leukemia = test system: K-562 leukemia
SF-268 CNS = test system: SF-268 CNS

Compound: C[C@@H](NC(=O)c1ncnc(N)c1Cl)c1ncc(C(=O)Nc2cc(C(F)(F)F)c(Cl)cn2)s1
- GI50 (SNB-75 CNS): 23.7 µM
- TGI (SNB-75 CNS): 48.1 µM
- GI50 (T-47D breast): 10.2 µM
- TGI (T-47D breast): 22.7 µM
- GI50 (NCI-H23 lung): 1.88 µM
- TGI (NCI-H23 lung): 8.75 µM
- GI50 (M14 melanoma): 0.157 µM
- TGI (M14 melanoma): 1.16 µM
- GI50 (NCI-H522 lung): 13.7 µM
- TGI (NCI-H522 lung): 26.6 µM
- GI50 (NCI-H226 lung): 15.8 µM
- TGI (NCI-H226 lung): 40.4 µM
- GI50 (NCI-H460 NSCLC): 9.03 µM
- TGI (NCI-H460 NSCLC): 21.7 µM
- GI50 (PC-3 prostate): 20.4 µM
- TGI (PC-3 prostate): 35 µM
- GI50 (OVCAR-3 ovarian): 16.2 µM
- TGI (OVCAR-3 ovarian): 34.1 µM
- GI50 (SNB-19 CNS): 29.4 µM
- TGI (SNB-19 CNS): 91.4 µM
- GI50 (SN12C renal): 15.3 µM
- TGI (SN12C renal): 40.6 µM
- GI50 (HS 578T breast): 15 µM
- TGI (HS 578T breast): 28.4 µM
- GI50 (SF-539 CNS): 17.4 µM
- TGI (SF-539 CNS): 35.9 µM
- GI50 (MDA-MB-435 melanoma): 1.37 µM
- TGI (MDA-MB-435 melanoma): 15.9 µM
- GI50 (EKVX NSCLC): 14.8 µM
- TGI (EKVX NSCLC): 29.1 µM
- GI50 (A549 NSCLC): 10.3 µM
- TGI (A549 NSCLC): 27.8 µM
- GI50 (UACC-62 melanoma): 0.154 µM
- TGI (UACC-62 melanoma): 1.41 µM
- GI50 (OVCAR-4 ovarian): 20.6 µM
- TGI (OVCAR-4 ovarian): 38 µM
- GI50 (HCT-15 colon): 11.2 µM
- TGI (HCT-15 colon): 25.6 µM
- GI50 (A498 renal): 16.1 µM
- TGI (A498 renal): 39.7 µM
- GI50 (COLO 205 colon): 0.441 µM
- TGI (COLO 205 colon): 12.2 µM
- GI50 ([…]-0 renal): 16.8 µM
- TGI (786-0 renal): 32.9 µM
- GI50 (HCC-2998 colon): 4.74 µM
- TGI (HCC-2998 colon): 18.5 µM
- GI50 (HOP-62 NSCLC): 12 µM
- TGI (HOP-62 NSCLC): 24.8 µM
- GI50 (HL-60(TB) leukemia): 0.717 µM
- TGI (HL-60(TB) leukemia): 10.8 µM
- GI50 (OVCAR-8 ovarian): 14.4 µM
- TGI (OVCAR-8 ovarian): 27.7 µM
- GI50 (TK-10 renal): 18.8 µM
- TGI (TK-10 renal): 36.4 µM
- GI50 (MOLT-4 leukemia): 11.1 µM
- TGI (MOLT-4 leukemia): 23.2 µM
- GI50 (SK-MEL-5 melanoma): 1.35 µM
- TGI (SK-MEL-5 melanoma): 15.2 µM
- GI50 (MDA-MB-468 breast): 22 µM
- TGI (MDA-MB-468 breast): 39 µM
- GI50 (UO-31 renal): 11.5 µM
- TGI (UO-31 renal): 32.5 µM
- GI50 (RXF 393 renal): 18.7 µM
- TGI (RXF 393 renal): 40 µM
- GI50 (SK-OV-3 ovarian): 20.5 µM
- TGI (SK-OV-3 ovarian): 42.6 µM
- GI50 (SW-620 colon): 10.8 µM
- TGI (SW-620 colon): 26.6 µM
- GI50 (CAKI-1 renal): 11.6 µM
- TGI (CAKI-1 renal): 26.5 µM
- GI50 (DU-145 prostate): 18 µM
- TGI (DU-145 prostate): 35.2 µM
- GI50 (CCRF-CEM leukemia): 12.8 µM
- TGI (CCRF-CEM leukemia): 25.5 µM
- GI50 (SK-MEL-28 melanoma): 0.419 µM
- TGI (SK-MEL-28 melanoma): 2.67 µM
- GI50 (SF-295 CNS): 17.7 µM
- TGI (SF-295 CNS): 32.8 µM
- GI50 (UACC-257 melanoma): 0.406 µM
- TGI (UACC-257 melanoma): 2.48 µM
- GI50 (RPMI-8226 leukemia): 13.9 µM
- TGI (RPMI-8226 leukemia): 27.1 µM
- GI50 (IGROV1 ovarian): 5.42 µM
- TGI (IGROV1 ovarian): 20.8 µM
- GI50 (NCI-H322M lung): 13 µM
- TGI (NCI-H322M lung): 28.1 µM
- GI50 (MDA-MB-231 breast): 2.11 µM
- TGI (MDA-MB-231 breast): 20.3 µM
- GI50 (ACHN renal): 13.7 µM
- TGI (ACHN renal): 37.8 µM
- GI50 (HCT-116 colon): 2.24 µM
- TGI (HCT-116 colon): 13.6 µM
- GI50 (MALME-3M melanoma): 0.0475 µM
- TGI (MALME-3M melanoma): 0.289 µM
- GI50 (MCF7 breast): 14.5 µM
- TGI (MCF7 breast): 28.7 µM
- GI50 (BT-549 breast): 16.2 µM
- TGI (BT-549 breast): 30.8 µM
- GI50 (OVCAR-5 ovarian): 5.67 µM
- TGI (OVCAR-5 ovarian): 29.6 µM
- GI50 (HOP-92 NSCLC): 4.23 µM
- TGI (HOP-92 NSCLC): 14.9 µM
- GI50 (HT29 colon): 0.555 µM
- TGI (HT29 colon): 15.4 µM
- GI50 (LOX IMVI melanoma): 1.42 µM
- TGI (LOX IMVI melanoma): 13.7 µM
- GI50 (NCI/ADR-RES ovarian): 16.9 µM
- TGI (NCI/ADR-RES ovarian): 32 µM
- GI50 (U251 glioblastoma): 18 µM
- TGI (U251 glioblastoma): 39.1 µM
- GI50 (KM12 colon): 13.1 µM
- TGI (KM12 colon): 31.3 µM
- GI50 (K-562 leukemia): 0.281 µM
- TGI (K-562 leukemia): 1.2 µM
- GI50 (SF-268 CNS): 12.3 µM
- TGI (SF-268 CNS): 24.9 µM
